{"source": "BindingDB's records for doi:10.1016/j.ejmech.2011.07.022", "about": "(Medical University of Warsaw, 2011)", "target": "T1, 5-hydroxytryptamine receptor 1A (Rattus norvegicus, UniProt P19327)", "T1 sequence (P19327 whole entry)": "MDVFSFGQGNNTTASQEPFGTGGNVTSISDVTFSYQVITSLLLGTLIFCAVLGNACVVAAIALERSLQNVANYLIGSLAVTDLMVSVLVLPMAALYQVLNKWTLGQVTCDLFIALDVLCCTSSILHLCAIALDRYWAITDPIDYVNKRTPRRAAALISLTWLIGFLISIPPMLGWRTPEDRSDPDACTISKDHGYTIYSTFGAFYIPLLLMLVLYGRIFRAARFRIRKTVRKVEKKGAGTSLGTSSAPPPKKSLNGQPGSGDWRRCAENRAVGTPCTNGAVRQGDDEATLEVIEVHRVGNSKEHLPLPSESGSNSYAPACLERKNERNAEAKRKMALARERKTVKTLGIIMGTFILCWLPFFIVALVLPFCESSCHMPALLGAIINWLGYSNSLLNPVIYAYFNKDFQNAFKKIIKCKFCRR", "experiment": "Displacement of [3H]8OH-DPAT from 5HT1A in rat brain cerebral cortex after 15 mins by scintillation counting", "data": [{"smiles": "COc1ccc(Cl)cc1C(=O)NC1C[C@H]2CC[C@H](C1)N2Cc1ccco1", "note": "(stereo partly specified)", "values": [{"measurement": "Ki", "value": "> 100", "unit": "µM"}]}]}
